Tested on: MDA-231 cancer cells
Test: Inhibition of proliferation assay, cell confluence (IncuCyte live cell imaging)
Type: cell-based
Conditions: MDA-231 cells, concentration 10 uM; relative confluence normalised to time zero, images every 3 h over 4-5 d
From the text: Inhibition of Proliferation Assay Cell Confluence The confluence value is a surrogate for cell proliferation and growth. The value is expressed as a percent confluence, which represents the fraction of culture dish-surface that is occupied by cells. As the number of cells in the dish increases over time due to proliferation, so will their coverage of that surface increase. Expansion of the cell population on the cell culture-dish surface and confluence have mostly a linear relationship until the cells on the plate surface begin to reach saturation or maximum density. Confluence is determined based on image analysis. Image based software can identify objects in the image field base on changes to pixel density in a grey scale image. The software can then assign a mask to those pixels within the object. Objects can be ‘gated’ out based on size and shape. To determine cell confluence, images of cells are first masked as objects. The surface area of the image that is masked is measured and compared to the total surface area of the culture dish surface to obtain a percent confluence. MDA-231 cancer cells were obtained from ATCC. Cells were cultured in Dulbecco's Modified Eagle Medium (DMEM) supplemented with 10% Fetal Bovine Serum (FBS), 2 mM Glutamax, 1 mM Non Essential Amino Acid (NEAA) solution and 1 mM sodium pyruvate. Compounds were dissolved in DMSO at 10 mM and diluted in cellular medium and tested at 10 μM (micromolar). Final DMSO concentrations were <0.1%. Images were acquired with an IncuCyte Live Cell Imaging microscopy (Essen Bioscience) at every 3 h under cell culture conditions with 10× objective over 4-5 d. Cell confluence was calculated from one field of view per well using the IncuCyte in-built algorithm. Relative confluence values were obtained by normalising each value to the time zero value in each sample.

SMILES | % Confluence
CC[C@H]1OC(=O)[C@H](C)[C@@H](O[C@H]2C[C@@](C)(OC)[C@@H](O)[C@H](C)O2)[C@H](C)[C@@H](O[C@@H]2O[C@H](C)C[C@H](N(C)C)[C@H]2O)[C@](C)(O)C[C@@H](C)CN(CCCCCC[P+](c2ccccc2)(c2ccccc2)c2ccccc2)[C@H](C)[C@@H](O)[C@]1(C)O [Example 8, {6-[(2R,3S,4R,5R,8R,10R,11R,12S,13S,14R)-11-{[(2S,3R,4S,6R)-4-(dimethylamino)-3-hydroxy-6-methyloxan-2-yl]oxy}-2-ethyl-3,4,10-trihydroxy-13-{[(2R,4R,5S,6S)-5-hydroxy-4-methoxy-4,6-dimethyloxan-2-yl]oxy}-3,5,8,10,12,14-hexamethyl-15-oxo-1-oxa-6-azacyclopentadecan-6-yl]hexyl}triphenylphosphonium iodide] | 109.9%
CC[C@H]1OC(=O)[C@H](C)[C@@H](O)[C@H](C)[C@@H](O[C@@H]2O[C@H](C)C[C@H](N(C)C)[C@H]2O)[C@](C)(O)C[C@@H](C)CN(C(=O)CCCCCCCCCCC[P+](c2ccccc2)(c2ccccc2)c2ccccc2)[C@H](C)[C@@H](O)[C@]1(C)O [Example 12, {12-[(2R,3S,4R,5R,8R,10R,11R,12S,13S,14R)-11-{[(2S,3R,4S,6R)-4-(dimethylamino)-3-hydroxy-6-methyloxan-2-yl]oxy}-2-ethyl-3,4,10,13-tetrahydroxy-3,5,8,10,12,14-hexamethyl-15-oxo-1-oxa-6-azacyclopentadecan-6-yl]-12-oxododecyl}triphenylphosphonium hexafluorophosphate(V)] | 6.6%
CC[C@H]1OC(=O)[C@H](C)[C@@H](O[C@H]2C[C@@](C)(OC)[C@@H](O)[C@H](C)O2)[C@H](C)[C@@H](O[C@@H]2O[C@H](C)C[C@H](N(C)C)[C@H]2O)[C@](C)(O)C[C@@H](C)CN(C(=O)CCCCC[PH](c2ccccc2)(c2ccccc2)c2ccccc2)[C@H](C)[C@@H](O)[C@]1(C)O [Example 6, {6-[(2R,3S,4R,5R,8R,10R,11R,12S,13S,14R)-11-{[(2S,3R,4S,6R)-4-(dimethylamino)-3-hydroxy-6-methyloxan-2-yl]oxy}-2-ethyl-3,4,10-trihydroxy-13-{[(2R,4R,5S,6S)-5-hydroxy-4-methoxy-4,6-dimethyloxan-2-yl]oxy}-3,5,8,10,12,14-hexamethyl-15-oxo-1-oxa-6-azacyclopentadecan-6-yl]-6-oxohexyl}triphenylphosphonium hexafluorophosphate(V)] | 118.9%
